From patent US20110158954A1, “METHOD FOR PRODUCING GAMMA DELTA T CELL POPULATION” (priority 2007, published 2011)

Tests used:
γδ T cells = assay: Expansion of γδ T cell population using pamidronate, CH-296 plate (Example 3); type: cell-based; conditions: human PBMCs; IMDM; pamidronate 5 μM; immobilized CH-296; day 14
Method: The expansion was carried out in the same manner as Example 2, except that a plate immobilized with CH-296 prepared in Example 1-(2) was used.
The ratio of the γδ T cells was analyzed according to flow cytometry for PBMCs prepared in Example 1-(1) and the cells on the fourteenth day from the initiation of culture prepared in Example 3-(1), in the same manner as in Example 1-(4). As a result, the ratio of γδ T cells was 8.9% for the PBMCs, and the ratio was from 96.0 to 96.9% for the cells on the fourteenth day from the initiation of culture.
The number of live cells was counted according to trypan blue staining method for the cells on the fourteenth day from the initiation of culture prepared in Example 3-(1). The expansion fold of γδ T cells was calculated in comparison of the counted number with the number of γδ T cells at the initiation of culture, in the same manner as in Example 1-(5).

K562 cells = assay: Cytotoxic activity of cultured γδ T cell population, Calcein-AM release; type: cell-based, human; conditions: γδ T cells expanded 14 days with pamidronate on immobilized FN fragment; target cells K526 (so in the source); E/T 30; 4 hours
Method: The cytotoxic activity was determined for the cells on the fourteenth day from the initiation of culture prepared in Example 3-(1). The cytotoxic activity was evaluated by a method for assaying cytotoxic activity using Calcein-AM [Lichtenfels R. et al., J. Immunol. Methods 172(2), 227-239 (1994)]. […]
The cells on the fourteenth day from the initiation of culture prepared in Example 3-(1) were diluted with an RPMI 1640 medium containing 5% (v/v) human AB serum, 0.1 mM NEAA mixture, 1 mM sodium pyruvate (all manufactured by Cambrex), 2 mM L-glutamine, 10 μg/mL streptomycin sulfate (hereinafter referred to as “5HRPMI”) as effector cells, so as to have a concentration of 3×10^6 cells/mL. […] Upon the addition, the ratio of the effector cells (E) to the Calcein-labeled target cells (T) is expressed as an E/T ratio, and the measurements were made at an E/T ratio of 30. […] Thereafter, 100 μL of the culture supernatant was collected from each well, and the amount of Calcein released into the culture supernatant was determined with a fluorescence plate reader (Mithras LB 940, manufactured by BERTHOLD TECHNOLOGIES) (excited at 485 nm/measured at 535 nm). The “cytotoxic activity (%)” was calculated in accordance with the following formula.
Cytotoxic Activity (%)={(Measured Value in Each Well−Minimum Released Amount)/(Maximum Released Amount−Minimum Released Amount)}×100 […]

## CH-296: polypeptide comprising a cell binding domain, a heparin binding domain and a CS-1 domain of fibronectin (SEQ ID NO: 13)
γδ T cells
  expansion fold of γδ T cells compared to control group: high expansion fold of γδ T cells during the culture, as compared to that of the control group
K562 cells
  Cytotoxic Activity (%): 25.45%
